The source of these data is ChEMBL document CHEMBL1799959, “Cyathane diterpenes from Chinese mushroom Sarcodon scabrosus and their neurite outgrowth-promoting activity” (2011).

Assay [1] concerns PC-12. As to the kind of experiment: Neuritogenic activity in rat PC12 cells in serum free medium assessed as neurite outgrowth at 25 uM after 24 hrs by light microscopy. In kind it is functional, cell-based.
The test system of assay [2] is PC-12. The experiment in a line: Neuritogenic activity in rat PC12 cells in serum free medium assessed as potentiation of NGF-induced neurite outgrowth at 25 uM after 24 hrs by light microscopy in presence of 20 ng/ml NGF. In kind it is functional.
Assay [3] relates to PC-12. As to the kind of experiment: Neuritogenic activity in rat PC12 cells in serum free medium assessed as potentiation of NGF-induced neurite outgrowth at 25 uM after 24 hrs by light microscopy in presence of 20 ng/ml NGF relative to NGF. In kind it is functional, cell-based.

SMILES strings stand for the structures. Active and inactive are the calls of the source. The calls are words filed in the database; no cut-off is given here.

In the case of `CC(C)C1=C2[C@H]3C[C@@H](OC(=O)c4ccccc4)C(COC(=O)c4ccccc4)=C[C@H](O)[C@]3(C)CC[C@@]2(C(=O)O)CC1`, the result in the assay with PC-12 [1] and in the assay with PC-12 [2] was inactive.
For the compound `C[C@@H](CO)C1=C2[C@H]3C[C@H](O)C(COC(=O)c4ccccc4)=C[C@H](O)[C@]3(C)CC[C@@]2(C)CC1`, the outcome in the assay on PC-12 [1] and in the assay on PC-12 [2] was inactive.
Regarding `C[C@H](CO)C1=C2[C@H]3CC=C(C=O)CC(=O)[C@]3(C)CC[C@@]2(C)CC1` [SARCODONIN G], the outcome with PC-12 [1] was inactive. Moreover, the Activity in the assay on PC-12 [2] stood at 24.9%. The result with PC-12 [3] was Active.
The corresponding values for `C[C@H](CO)C1=C2C3=CC=C(C=O)C[C@H](O)[C@]3(C)CC[C@@]2(C)CC1` [SARCODONIN A] are “inactive”, 20% and “Active”.
As to `C[C@@H](CO)C1=C2[C@H]3C[C@H](O)C(COC(=O)c4ccccc4)=C[C@H](O)[C@]3(C)CC[C@@]2(CO)CC1`, the result in the assay with PC-12 [1] and in the assay with PC-12 [2] was inactive.
Regarding `C[C@@H](CO)C1=C2[C@H]3CC=C(C=O)CC(=O)[C@]3(C)CC[C@@]2(CO)CC1`, the outcome in the assay with PC-12 [1] and in the assay with PC-12 [2] was inactive.
For `CC(=O)OC[C@@H](C)C1=C2[C@H]3CC=C(C=O)CC(=O)[C@]3(C)CC[C@@]2(C)CC1`, the result with PC-12 [1] and with PC-12 [2] was inactive.
